In patent US20250000843A1, “LIGNAN-INSPIRED COMPOUNDS, METHODS OF MAKING, AND USING THEREOF” (IOWAIBO, INC., priority 2023, published 2025):

Assays:
[1] = tested on: PC3, a human prostate cancer cell line; assay: MTT toxicity assay in PC3 prostate cancer cells; assay type: cell-based
Procedure: Toxicity of the dibenzyl butyl lactone derivative (3-[(3,4-dimethoxyphenyl)cyclopentyl], 4-[(3-hydroxyphenol)methyl]oxolan-2-one) in breast cancer cells was evaluated using MTT assay. The MTT toxicity test is a colorimetric assay to measure cells' metabolic activity by serving as a substrate of cellular enzymes that reduce the tetrazolium orange dye, MTT (3-(4,5-Dimethylthiazol-2-yl)-2,5-diphenyltetrazolium bromide) to its insoluble, formazan, giving a purple color. The rate of conversion is directly proportional to cells' mitochondrial metabolic activity via NAD (P) H-dependent cellular oxidoreductase enzymes and serves as a surrogate marker of cell viability.
Cells previously expanded were seeded in 96 well plates at 1.9×10^5 and 9.6×10^4 cells/plate for 24- and 72-hours treatment respectively. This concentration is known to show the best window for the MTT assay, with better sensitivity and low variability.
5 mg of powdered enterolactone, dibenzyl butyl lactone derivative enantiomer A, and dibenzyl butyl lactone derivative enantiomer B were dissolved in 500 μl of DMSO at room temperature. Eight-point curves, ⅓ dilutions (highest concentration 125 μM), were prepared.
Twenty-four hours following the seeding process, the cells were washed once with phosphate buffered saline (PBS) and treated with the respective compounds in cell culture media. Each condition was tested in triplicates. For positive and negative controls, 8 mM methyl methane sulfonate (MMS) and DMSO 100% were used respectively.
Following compound addition, the plates were incubated for 24 and 72 hours. After the treatment period, cells were washed twice with PBS and media was replaced with MTT reagent at 0.5 mg/ml in Dulbecco's modified Eagle medium (DMEM) without phenol red. The plates were gently shaken and incubated for 4 hours. After the incubation the medium was removed and replaced by DMSO. The plates were gently shaken to solubilize the formazan crystals. Absorbance was measured using an Envision multiplate reader at a wavelength of 570 nm.
Toxicity of the dibenzyl butyl lactone derivative (3-[(3,4-dimethoxyphenyl)cyclopentyl], 4-[(3-hydroxyphenol)methyl]oxolan-2-one) in prostate cancer cells was evaluated using MTT assay. The same methods as those used in Example 2 were employed, except the cell line used was PC3, a human prostate cancer cell line, and cell cultures were established in Kaighn's modification of Ham's […] medium.
MTT assay results are shown in Tables 16-21 and expressed as the percentage of cell death after treatment.

[2] = target: telomerase (Homo sapiens, UniProt O14746); assay: Q-TRAP telomerase activity in MCF7 breast cancer cells; assay type: cell-based; parameters: allow the enzymatic addition of telomeric DNA repeats by endogenous telomerase; endogenous in cells
telomerase, sequence (O14746 whole entry): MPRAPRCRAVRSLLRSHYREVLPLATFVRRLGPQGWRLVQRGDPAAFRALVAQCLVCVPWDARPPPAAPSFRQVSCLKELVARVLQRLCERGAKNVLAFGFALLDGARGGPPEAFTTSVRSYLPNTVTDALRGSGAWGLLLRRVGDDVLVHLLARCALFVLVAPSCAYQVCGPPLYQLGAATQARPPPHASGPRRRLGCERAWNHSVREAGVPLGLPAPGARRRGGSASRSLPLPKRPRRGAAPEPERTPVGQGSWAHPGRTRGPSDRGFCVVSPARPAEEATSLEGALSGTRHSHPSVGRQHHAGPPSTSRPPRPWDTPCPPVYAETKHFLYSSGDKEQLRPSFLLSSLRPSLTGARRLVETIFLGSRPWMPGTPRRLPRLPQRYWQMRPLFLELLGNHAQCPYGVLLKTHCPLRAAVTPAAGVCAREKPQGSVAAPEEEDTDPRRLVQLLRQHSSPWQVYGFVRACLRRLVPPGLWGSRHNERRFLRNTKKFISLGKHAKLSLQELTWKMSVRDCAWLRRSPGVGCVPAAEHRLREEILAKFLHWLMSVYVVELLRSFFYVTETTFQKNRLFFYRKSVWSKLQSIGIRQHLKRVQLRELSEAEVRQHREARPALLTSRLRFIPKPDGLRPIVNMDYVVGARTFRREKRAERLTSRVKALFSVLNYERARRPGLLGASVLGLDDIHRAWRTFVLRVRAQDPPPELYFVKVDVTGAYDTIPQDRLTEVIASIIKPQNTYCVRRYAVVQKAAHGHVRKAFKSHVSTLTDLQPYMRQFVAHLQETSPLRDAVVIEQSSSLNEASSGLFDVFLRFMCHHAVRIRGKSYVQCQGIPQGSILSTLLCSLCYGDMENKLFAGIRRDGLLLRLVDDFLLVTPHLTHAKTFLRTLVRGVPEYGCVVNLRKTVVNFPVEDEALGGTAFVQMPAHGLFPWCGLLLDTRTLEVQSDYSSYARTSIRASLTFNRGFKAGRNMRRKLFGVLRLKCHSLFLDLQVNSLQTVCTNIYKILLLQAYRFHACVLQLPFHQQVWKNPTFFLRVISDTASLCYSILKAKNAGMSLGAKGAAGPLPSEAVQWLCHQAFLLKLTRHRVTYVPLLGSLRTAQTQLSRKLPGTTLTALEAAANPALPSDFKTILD
telomerase, sequence (O60832 whole entry partner): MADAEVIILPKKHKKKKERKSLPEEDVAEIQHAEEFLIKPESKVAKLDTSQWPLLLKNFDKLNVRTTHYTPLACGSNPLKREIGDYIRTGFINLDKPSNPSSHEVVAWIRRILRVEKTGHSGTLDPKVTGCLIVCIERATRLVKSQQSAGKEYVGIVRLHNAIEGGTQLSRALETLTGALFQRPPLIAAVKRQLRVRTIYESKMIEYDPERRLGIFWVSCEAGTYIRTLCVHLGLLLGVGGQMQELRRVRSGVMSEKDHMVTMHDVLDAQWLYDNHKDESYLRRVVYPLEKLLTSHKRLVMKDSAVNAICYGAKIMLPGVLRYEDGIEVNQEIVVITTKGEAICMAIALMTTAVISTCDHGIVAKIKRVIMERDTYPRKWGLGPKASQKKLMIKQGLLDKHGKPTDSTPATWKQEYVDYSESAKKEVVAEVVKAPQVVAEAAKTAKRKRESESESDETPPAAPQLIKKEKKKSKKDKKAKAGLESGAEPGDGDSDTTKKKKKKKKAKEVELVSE
telomerase, sequence (Q9NPE3 whole entry partner): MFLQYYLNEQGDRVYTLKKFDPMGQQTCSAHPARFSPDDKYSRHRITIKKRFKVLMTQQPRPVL
telomerase, sequence (Q9NX24 whole entry partner): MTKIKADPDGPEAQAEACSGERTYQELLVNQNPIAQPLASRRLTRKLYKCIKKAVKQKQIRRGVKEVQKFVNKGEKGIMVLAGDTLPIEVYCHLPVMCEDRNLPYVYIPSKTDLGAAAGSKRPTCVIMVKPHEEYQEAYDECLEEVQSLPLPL
telomerase, sequence (Q9NY12 whole entry partner): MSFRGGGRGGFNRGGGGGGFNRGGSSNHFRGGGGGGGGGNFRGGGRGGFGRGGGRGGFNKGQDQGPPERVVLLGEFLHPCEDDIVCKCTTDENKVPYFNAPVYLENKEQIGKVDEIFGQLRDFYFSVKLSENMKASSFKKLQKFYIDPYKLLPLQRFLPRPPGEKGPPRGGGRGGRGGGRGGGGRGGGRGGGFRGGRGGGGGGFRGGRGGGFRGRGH
telomerase, sequence (Q9BUR4 whole entry partner): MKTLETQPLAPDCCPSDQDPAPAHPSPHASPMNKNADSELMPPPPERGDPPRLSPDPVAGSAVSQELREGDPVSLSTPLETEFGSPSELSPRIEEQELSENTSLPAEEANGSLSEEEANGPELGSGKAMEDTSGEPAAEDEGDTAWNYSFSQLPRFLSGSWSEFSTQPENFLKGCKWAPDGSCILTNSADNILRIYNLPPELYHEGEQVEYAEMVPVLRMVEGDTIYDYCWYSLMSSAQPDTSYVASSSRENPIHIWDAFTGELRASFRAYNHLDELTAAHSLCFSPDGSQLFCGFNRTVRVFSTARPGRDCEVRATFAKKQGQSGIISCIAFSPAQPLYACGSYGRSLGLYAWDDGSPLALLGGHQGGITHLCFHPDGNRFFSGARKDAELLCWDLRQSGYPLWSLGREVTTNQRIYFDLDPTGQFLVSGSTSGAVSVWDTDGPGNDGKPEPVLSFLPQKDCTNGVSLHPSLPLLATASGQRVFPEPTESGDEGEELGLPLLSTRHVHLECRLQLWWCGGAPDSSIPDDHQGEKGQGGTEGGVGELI

O=C1OCC(Cc2ccc3c(c2)OCO3)/C1=C\c1cccc(O)c1 (single isomer, unassigned) [Enantiomer A, 3-[(3,4-dimethoxyphenyl)cyclopentyl], 4-[(3-hydroxyphenol)methyl]oxolan-2-one]
Cell death #1 (%) ([1]; PC3, 24 hours, 0.06 μM): −10.92% | Cell death #2 (%) ([1]; PC3, 24 hours, 0.06 μM): −13.82% | Cell death #3 (%) ([1]; PC3, 24 hours, 0.06 μM): −11.02% | Cell death (%) MEAN ([1]; PC3, 24 hours, 0.06 μM): −11.92% | Cell death #1 (%) ([1]; PC3, 24 hours, 0.17 μM): −27.17% | Cell death #2 (%) ([1]; PC3, 24 hours, 0.17 μM): −17.50% | Cell death #3 (%) ([1]; PC3, 24 hours, 0.17 μM): −8.79% | Cell death (%) MEAN ([1]; PC3, 24 hours, 0.17 μM): −17.82% | Cell death #1 (%) ([1]; PC3, 24 hours, 0.51 μM): −2.70% | Cell death #2 (%) ([1]; PC3, 24 hours, 0.51 μM): −15.18% | Cell death #3 (%) ([1]; PC3, 24 hours, 0.51 μM): −10.44% | Cell death (%) MEAN ([1]; PC3, 24 hours, 0.51 μM): −9.44% | Cell death #1 (%) ([1]; PC3, 24 hours, 1.54 μM): −29.20% | Cell death #2 (%) ([1]; PC3, 24 hours, 1.54 μM): −24.37% | Cell death #3 (%) ([1]; PC3, 24 hours, 1.54 μM): −23.78% | Cell death (%) MEAN ([1]; PC3, 24 hours, 1.54 μM): −25.78% | Cell death #1 (%) ([1]; PC3, 24 hours, 4.63 μM): −17.98% | Cell death #2 (%) ([1]; PC3, 24 hours, 4.63 μM): −21.37% | Cell death #3 (%) ([1]; PC3, 24 hours, 4.63 μM): −15.27% | Cell death (%) MEAN ([1]; PC3, 24 hours, 4.63 μM): −18.21% | Cell death #1 (%) ([1]; PC3, 24 hours, 13.89 μM): −26.49% | Cell death #2 (%) ([1]; PC3, 24 hours, 13.89 μM): −20.40% | Cell death #3 (%) ([1]; PC3, 24 hours, 13.89 μM): −18.56% | Cell death (%) MEAN ([1]; PC3, 24 hours, 13.89 μM): −21.82% | Cell death #1 (%) ([1]; PC3, 24 hours, 41.67 μM): −6.18% | Cell death #2 (%) ([1]; PC3, 24 hours, 41.67 μM): −0.76% | Cell death #3 (%) ([1]; PC3, 24 hours, 41.67 μM): −12.85% | Cell death (%) MEAN ([1]; PC3, 24 hours, 41.67 μM): −6.60% | Cell death #1 (%) ([1]; PC3, 24 hours, 125.00 μM): 32.42% | Cell death #2 (%) ([1]; PC3, 24 hours, 125.00 μM): 28.74% | Cell death #3 (%) ([1]; PC3, 24 hours, 125.00 μM): 33.00% | Cell death (%) MEAN ([1]; PC3, 24 hours, 125.00 μM): 31.39% | Cell death #1 (%) ([1]; PC3, 72 hours, 0.06 μM): −39.43% | Cell death #2 (%) ([1]; PC3, 72 hours, 0.06 μM): −40.43% | Cell death #3 (%) ([1]; PC3, 72 hours, 0.06 μM): −33.95% | Cell death (%) MEAN ([1]; PC3, 72 hours, 0.06 μM): −37.94% | Cell death #1 (%) ([1]; PC3, 72 hours, 0.17 μM): −43.42% | Cell death #2 (%) ([1]; PC3, 72 hours, 0.17 μM): −40.55% | Cell death #3 (%) ([1]; PC3, 72 hours, 0.17 μM): −38.31% | Cell death (%) MEAN ([1]; PC3, 72 hours, 0.17 μM): −40.76% | Cell death #1 (%) ([1]; PC3, 72 hours, 0.51 μM): −63.73% | Cell death #2 (%) ([1]; PC3, 72 hours, 0.51 μM): −69.58% | Cell death #3 (%) ([1]; PC3, 72 hours, 0.51 μM): −63.23% | Cell death (%) MEAN ([1]; PC3, 72 hours, 0.51 μM): −65.51% | Cell death #1 (%) ([1]; PC3, 72 hours, 1.54 μM): −46.91% | Cell death #2 (%) ([1]; PC3, 72 hours, 1.54 μM): −52.39% | Cell death #3 (%) ([1]; PC3, 72 hours, 1.54 μM): −53.51% | Cell death (%) MEAN ([1]; PC3, 72 hours, 1.54 μM): −50.94% | Cell death #1 (%) ([1]; PC3, 72 hours, 4.63 μM): −76.31% | Cell death #2 (%) ([1]; PC3, 72 hours, 4.63 μM): −66.59% | Cell death #3 (%) ([1]; PC3, 72 hours, 4.63 μM): −54.63% | Cell death (%) MEAN ([1]; PC3, 72 hours, 4.63 μM): −65.85% | Cell death #1 (%) ([1]; PC3, 72 hours, 13.89 μM): −45.54% | Cell death #2 (%) ([1]; PC3, 72 hours, 13.89 μM): −47.91% | Cell death #3 (%) ([1]; PC3, 72 hours, 13.89 μM): −30.21% | Cell death (%) MEAN ([1]; PC3, 72 hours, 13.89 μM): −41.22% | Cell death #1 (%) ([1]; PC3, 72 hours, 41.67 μM): 9.78% | Cell death #2 (%) ([1]; PC3, 72 hours, 41.67 μM): 23.24% | Cell death #3 (%) ([1]; PC3, 72 hours, 41.67 μM): 14.02% | Cell death (%) MEAN ([1]; PC3, 72 hours, 41.67 μM): 15.68% | Cell death #1 (%) ([1]; PC3, 72 hours, 125.00 μM): 75.56% | Cell death #2 (%) ([1]; PC3, 72 hours, 125.00 μM): 74.94% | Cell death #3 (%) ([1]; PC3, 72 hours, 125.00 μM): 74.82% | Cell death (%) MEAN ([1]; PC3, 72 hours, 125.00 μM): 75.11% | prostate cancer cell death as compared to enterolactone ([1]; PC3, at higher concentrations, 24 hours and 72 hours post-treatment): increased prostate cancer cell death as compared to enterolactone | Telomerase Activity RTA (%) ([2]; MCF7, 2.5 μM, 24 Hours): 115.47% | Telomerase Activity RTA (%) ([2]; MCF7, 2.5 μM, 48 Hours): 49.73% | Telomerase Activity RTA (%) ([2]; MCF7, 2.5 μM, 72 Hours): 15.70% | Telomerase Activity RTA (%) ([2]; MCF7, 5 μM, 24 Hours): 35.54% | Telomerase Activity RTA (%) ([2]; MCF7, 5 μM, 48 Hours): 29.14% | Telomerase Activity RTA (%) ([2]; MCF7, 5 μM, 72 Hours): 14.77% | Telomerase Activity RTA (%) ([2]; MCF7, 10 μM, 24 Hours): 40.24% | Telomerase Activity RTA (%) ([2]; MCF7, 10 μM, 48 Hours): 28.47% | Telomerase Activity RTA (%) ([2]; MCF7, 10 μM, 72 Hours): 15.87% | Telomerase Activity RTA (%) ([2]; MCF7, 20 μM, 24 Hours): 25.50% | Telomerase Activity RTA (%) ([2]; MCF7, 20 μM, 48 Hours): 41.20% | Telomerase Activity RTA (%) ([2]; MCF7, 20 μM, 72 Hours): 5.82% | Telomerase Activity RTA (%) ([2]; MCF7, 40 μM, 24 Hours): 62.53% | Telomerase Activity RTA (%) ([2]; MCF7, 40 μM, 48 Hours): 36.82% | Telomerase Activity RTA (%) ([2]; MCF7, 40 μM, 72 Hours): 0.86% | IC50 ([2]; MCF7, 24 h): ~2490 nM | telomerase activity levels of treated groups compared to control ([2]; MCF7, 24 hours): lower telomerase activity levels compared to control | Significance of RTA difference vs. control ([2]; MCF7, 24 hours, 5 μM): YES (*) | Significance of RTA difference vs. control ([2]; MCF7, 24 hours, 10 μM): YES (*) | Significance of RTA difference vs. control ([2]; MCF7, 24 hours, 20 μM): YES (*) | Significance of RTA difference vs. control ([2]; MCF7, 24 hours, 40 μM): YES (*) | IC50 ([2]; MCF7, 48 h): 2230 nM | telomerase activity levels of treated groups compared to control ([2]; MCF7, 48 hours): lower telomerase activity levels compared to control | Significance of RTA difference vs. control ([2]; MCF7, 48 hours, 5 μM): YES (*) | Significance of RTA difference vs. control ([2]; MCF7, 48 hours, 10 μM): YES (**) | Significance of RTA difference vs. control ([2]; MCF7, 48 hours, 40 μM): YES (*) | IC50 ([2]; MCF7, 72 h): 19800 nM | telomerase activity levels of treated groups compared to control ([2]; MCF7, 72 hours): groups treated with the two highest concentrations presented further lower RTA levels | Significance of RTA difference vs. control ([2]; MCF7, 72 hours, 40 μM): YES (**) | telomerase inhibition effect ([2]; MCF7 breast cancer cells): exhibit a telomerase inhibition effect
